A word on the IC50: it is the concentration that inhibits the measured activity by half.

Data on 39 compounds can be found in US9776979B2, “EBI2 modulators” (Sanford-Burnham Medical Research Institute, priority 2013, dated 2017).

In the experiment the target is EBI2 (Homo sapiens, UniProt P32249). In words: Cell-based luminescent assay (EBI2 modulation). Particulars: cell-based luminescence; 7a,25-OHC final assay concentration 80 nM; 60 minutes incubation; read-out: IC50. The procedure: Cell-Based Luminescent Assay
Sequence of EBI2 (P32249 whole entry): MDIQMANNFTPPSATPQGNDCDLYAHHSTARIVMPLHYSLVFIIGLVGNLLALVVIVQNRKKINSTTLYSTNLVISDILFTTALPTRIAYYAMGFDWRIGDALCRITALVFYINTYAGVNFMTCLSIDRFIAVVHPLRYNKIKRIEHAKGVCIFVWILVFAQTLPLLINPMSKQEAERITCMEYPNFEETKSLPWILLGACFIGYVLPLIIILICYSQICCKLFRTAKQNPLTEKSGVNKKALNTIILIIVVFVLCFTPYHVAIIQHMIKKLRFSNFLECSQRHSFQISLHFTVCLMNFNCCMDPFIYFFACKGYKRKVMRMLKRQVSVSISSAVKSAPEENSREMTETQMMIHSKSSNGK
To assess EBI2 modulation, the compounds described herein were assayed in the following cell-based luminescent assay:
1) Plated 600 cells/well in 4 uL of assay media into columns 1-48 of a 1536-well assay plate, using a liquid dispenser.
2) Centrifuged plates at 1000 rpm for 1 minute and covered with lids.
3) Incubated overnight at 37° C., 100% relative humidity, 5% CO2.
1) Centrifuged compound plates containing compounds described herein at 500 rpm for 1 minute.
2) Added compounds into assay plate col 5-48 to final concentration 4-5 uM. Added matching amount of DMSO to positive and negative control wells in columns 1-4.
3) Dispensed 2 ul/well of assay media to columns 1-2 for the positive control wells.
4) Added 2 ul/well of 400 nM 7a,25-OHC (final assay concentration=80 nM) in assay media to columns 3-48 for the negative control and test compound wells.
5) Centrifuged plates at 1000 rpm for 1 minute and re-lid plates.
6) Incubated plates at 37° C., 100% relative humidity, 5% CO2 for 60 minutes.
7) Following 60 minute incubation, delivered 2.5 uL of Detection Reagent solution to each assay plate (Columns 1-48) using a liquid handler.
8) Centrifuged plates at 2000 rpm for 2 minutes and re-lid plates.
9) Incubated plates for 60 minutes at 25 degrees in the dark.
10) Read plates using the Viewlux, Envision or other suitable plate reader using a luminescence detection.
The experimental values were normalized by the difference between values from neutral and stimulator control wells in each plate. Then normalized data was corrected to remove systematic plate patterns due to artifacts such as dispensing tip issues etc.
`O=C(/C=C/c1ccc(F)cc1)N1CCN(S(=O)(=O)c2ccc([N+](=O)[O-])cc2)CC1` [Compound C206, (2E)-3-(4-fluorophenyl)-1-{4-[(4-nitrophenyl)sulfonyl]piperazinyl}prop-2-en-1-one]: the concentration for half-maximal inhibition (IC50) is below 100 nM.
In the case of `O=C(C#Cc1cccc(Cl)c1)N1CCN(Cc2ccc(F)cc2C(F)(F)F)CC1` [Compound C302, 3-(3-chlorophenyl)-1-(4-{[4-fluoro-2-(trifluoromethyl)phenyl]methyl}piperazinyl)prop-2-yn-1-one] it was below 100 nM.
In the case of “(2E)-1-{4-[(2,5-difluorophenyl)methyl]piperazinyl}-3-phenylprop-2-en-1-one [Compound C350]”, the half-inhibitory concentration (IC50) was below 100 nM.
On to `O=C(c1cc2cc(Cl)ccc2[nH]1)N1CCN(S(=O)(=O)c2ccc(-c3ccccc3)cc2)CC1` [Compound C454, 5-chloroindol-2-yl 4-[(4-phenylphenyl)sulfonyl]piperazinyl ketone], for which the IC50 was in the range of 100 to 500 nM.
For the compound `O=C(c1cnc2ccccc2c1)N1CCN(Cc2ccc(Cl)cc2)CC1` [Compound C175, 4-[(4-chlorophenyl)methyl]piperazinyl 3-quinolyl ketone], the half-inhibitory concentration (IC50) was in the range of 500 to 5000 nM.
Then `O=C(c1csc2ccccc12)N1CCN(C(c2ccccc2)c2ccccc2)CC1` [Compound C290, benzo[b]thiophen-3-yl 4-(diphenylmethyl)piperazinyl ketone], with 100 to 500 nM; and “1-(4-{[4-fluoro-2-(trifluoromethyl)phenyl]methyl}piperazinyl)-3-[4-(trifluoromethyl)phenyl]prop-2-yn-1-one [Compound C432]”, with 100 to 500 nM.
In the case of “{1-[(5-chloroindol-2-yl)carbonyl](4-piperidyl)}(4-chlorophenyl) [Compound C462]” it was 100 to 500 nM; in that of `Cc1cccc(N2CCN(C(=O)c3cc4cc(Cl)ccc4[nH]3)CC2)c1C` [Compound C400, 4-(2,3-dimethylphenyl)piperazinyl 5-chloroindol-2-yl ketone], below 100 nM; in that of `COc1cccc(S(=O)(=O)N2CCN(C(=O)/C=C/c3ccc(F)cc3)CC2)c1` [Compound C314, (2E)-3-(4-fluorophenyl)-1-{4-[(3-methoxyphenyl)sulfonyl]piperazinyl}prop-2-en-1-one], below 100 nM.
`O=C(C#Cc1ccc(C(F)(F)F)cc1)N1CCN(C(c2ccccc2)c2ccccc2)CC1` [Compound C66, 1-[4-(diphenylmethyl)piperazinyl]-3-[4-(trifluoromethyl)phenyl]prop-2-yn-1-one]: the IC50 is below 100 nM.
Then `COc1ccc(C(=O)N2CCN(C(=O)C#Cc3cccc(Cl)c3)CC2)cc1` [Compound C59, 3-(3-chlorophenyl)-1-{4-[(4-methoxyphenyl)carbonyl]piperazinyl}prop-2-yn-1-one], with below 100 nM.
In the case of “4-[(4-chlorophenyl)carbonyl]piperazinyl 5-(trifluoromethyl)indol-2-yl ketone [Compound C64]” it was below 100 nM; in that of `O=C(/C=C/c1cc(Br)ccc1F)N1CCN(S(=O)(=O)c2ccc(Br)cc2)CC1` [Compound C174, (2E)-3-(5-bromo-2-fluorophenyl)-1-{4-[(4-bromophenyl)sulfonyl]piperazinyl}prop-2-en-1-one], 500 to 5000 nM.
Take “4-{[(4-bromophenyl)sulfonyl]amino}piperidyl 5-chloroindol-2-yl ketone [Compound C306]”: the IC50 is below 100 nM.
In the case of “1-[4-(diphenylmethyl)piperazinyl]-3-[2-(trifluoromethyl)phenyl]prop-2-yn-1-one [Compound C443]” it was 100 to 500 nM; in that of “tert-butyl 4-(indol-2-ylcarbonyl)piperazinecarboxylate [Compound C414]”, 100 to 500 nM.
In the case of `CCOc1ccc(/C=C/C(=O)N2CCN(S(=O)(=O)c3ccc(C(C)=O)cc3)CC2)cc1` [Compound C307, 4-({4-[(2E)-3-(4-ethoxyphenyl)prop-2-enoyl]piperazinyl}sulfonyl)-1-acetylbenzene] it was below 100 nM; in that of `O=C(C#Cc1ccc(Br)cc1)N1CCN(C(=O)c2ccc(B(O)O)cc2)CC1` [Compound C160, 4-(4-(3-(4-bromophenyl)propioloyl)piperazine-1-carbonyl)phenylboronic acid], below 100 nM; in that of `O=C(c1ccc(C(F)(F)F)cc1)N1CCN(C(=O)c2cc3ccc(Br)cc3[nH]2)CC1` [Compound C375, 6-bromoindol-2-yl 4-{[4-(trifluoromethyl)phenyl]carbonyl}piperazinyl ketone], 100 to 500 nM.
In the case of `O=C(/C=C/c1ccc(Cl)c(Cl)c1)N1CCN(Cc2ccc(F)cc2)CC1` [Compound C210, (2E)-3-(3,4-dichlorophenyl)-1-{4-[(4-fluorophenyl)methyl]piperazinyl}prop-2-en-1-one] it was below 100 nM.
For the compound `O=C(C#Cc1ccc(F)cc1)N1CCN(Cc2ccc(F)cc2C(F)(F)F)CC1` [Compound C179, 3-(4-fluorophenyl)-1-(4-{[4-fluoro-2-(trifluoromethyl)phenyl]methyl}piperazinyl)prop-2-yn-1-one], the IC50 lay in the range of 500 to 5000 nM.
On to `O=C(/C=C/c1ccc(F)cc1)N1CCN(S(=O)(=O)c2ccc(Cl)cc2)CC1` [Compound C96, (2E)-1-{4-[(4-chlorophenyl)sulfonyl]piperazinyl}-3-(4-fluorophenyl)prop-2-en-1-one], for which the concentration for half-maximal inhibition (IC50) is below 100 nM.
In the case of `COc1ccc(/C=C/C(=O)N2CCN(S(=O)(=O)c3ccc(C(C)(C)C)cc3)CC2)cc1` [Compound C385, (2E)-1-(4-{[4-(tert-butyl)phenyl]sulfonyl}piperazinyl)-3-(4-methoxyphenyl)prop-2-en-1-one] it was below 100 nM.
Then “4-(diphenylmethyl)piperazinyl 6-fluoro(3-quinolyl) ketone [Compound C227]”, with below 100 nM.
Take “4-[(4-bromophenyl)sulfonyl]piperazinyl 5-methylindol-2-yl ketone [Compound C143]”: the 50% inhibitory concentration (IC50) is below 100 nM.
Then “3-(2,3-dichlorophenyl)-1-{4-[(4-chlorophenyl)methyl]piperazinyl}prop-2-yn-1-one [Compound C275]”, with below 100 nM.
In the case of `O=C(C=Cc1ccc2c(c1)OCO2)N1CCN(C(=O)c2ccc(F)cc2)CC1` [Compound C216, 3-(2H-benzo[3,4-d]1,3-dioxolen-5-yl)-1-{4-[(4-fluorophenyl)carbonyl]piperazinyl}prop-2-en-1-one] it was below 100 nM; in that of `CCN(CC)c1ccc(C(=O)N2CCN(C(=O)c3cc4cc(Cl)ccc4[nH]3)CC2)cc1` [Compound C232, 4-{[4-(diethylamino)phenyl]carbonyl}piperazinyl 5-chloroindol-2-yl ketone], below 100 nM.
With `O=C(/C=C/c1cccc(C(F)(F)F)c1)N1CCN(C(c2ccccc2)c2ccccc2)CC1` [Compound C265, (2E)-1-[4-(diphenylmethyl)piperazinyl]-3-[3-(trifluoromethyl)phenyl]prop-2-en-1-one], the concentration for half-maximal inhibition (IC50) was below 100 nM.
Then `O=C(/C=C/c1ccc(F)cc1)N1CCN(S(=O)(=O)C2=Cc3ccccc3CC2)CC1` [Compound C22, (2E)-1-[4-(2-3,4-dihydronaphthylsulfonyl)piperazinyl]-3-(4-fluorophenyl)prop-2-en-1-one], with below 100 nM; and `O=C(C#Cc1cc(F)cc(F)c1)N1CCN(Cc2ccc(F)cc2)CC1` [Compound C197, 3-(3,5-difluorophenyl)-1-{4-[(4-fluorophenyl)methyl]piperazinyl}prop-2-yn-1-one], with 500 to 5000 nM.
Then `O=C(C#Cc1ccc(Cl)cc1)N1CCN(Cc2ccc(F)cc2)CC1` [Compound C369, 3-(4-chlorophenyl)-1-{4-[(4-fluorophenyl)methyl]piperazinyl}prop-2-yn-1-one], with below 100 nM.
In the case of `O=C(c1cc2ccc(Br)cc2[nH]1)N1CCN(Cc2ccc(F)cc2)CC1` [Compound C293, 6-bromoindol-2-yl 4-[(4-fluorophenyl)methyl]piperazinyl ketone] it was 100 to 500 nM; in that of `O=C(C=Cc1ccc2c(c1)OCO2)N1CCN(C(=O)c2ccc(Br)cc2)CC1` [Compound C234, 3-(2H-benzo[3,4-d]1,3-dioxolan-5-yl)-1-{4-[(4-bromophenyl)carbonyl]piperazinyl}prop-2-en-1-one], below 100 nM.
Turning to `O=C(c1cnc2cc(F)ccc2c1)N1CCN(C(c2ccccc2)c2ccccc2)CC1` [Compound C86, 4-(diphenylmethyl)piperazinyl 7-fluoro(3-quinolyl) ketone], the IC50 was below 100 nM.
For the compound `O=C(c1ccc2nc(C(F)F)[nH]c2c1)N1CCN(C(c2ccccc2)c2ccccc2)CC1` [Compound C283, 2-(difluoromethyl)benzimidazol-5-yl 4-(diphenylmethyl)piperazinyl ketone], the IC50 lay in the range of 100 to 500 nM.
On to “5-methylindol-2-yl 4-(phenylethyl)piperazinyl ketone [Compound C148]”, for which the IC50 is below 100 nM.
In the case of `O=C(/C=C/c1ccc(Br)cc1)N1CCN(C(=O)c2ccc(Cl)cc2)CC1` [Compound C1, (E)-3-(4-bromophenyl)-1-(4-(4-chlorobenzoyl)piperazin-1-yl) prop-2-en-1-one] it was below 100 nM.
